# Key:
# [1] = test system: library of 8,380 IKZF3 degrons (ZF-eGFP/mCherry reporter) in Jurkat cells; assay: Pooled library screen (FACS, NGS, limma voom LogFC of positive vs negative read counts); type: cell-based, human
# Summary of the method: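 Cells were lentivirally transduced at MOI <0.3, and mCherry+ cells were sorted 6 days later. Eight days after sorting, cells were treated with DMSO or thalidomide analog for 18 h at 37 °C. mCherry+GFPlow (DMSO-set gate, DAPI-excluded) and remaining cells were sorted, and degrons were PCR-amplified from gDNA and sequenced (>600× coverage, 3 biological replicates).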
# [2] = target: Q147A mutated ZF (ANQS) fused to eGFP (Homo sapiens, UniProt Q96SW2+Q9UKT9, Q147A); assay: GFP degradation flow cytometry assay, Q147A mutant ZF-eGFP; type: cell-based
# Protocol: Jurkat cells were added to 96 well U-bottom assay plates (Falcon) at 1×10^5 cells per well and treated with compounds for 18 hours at 37° C. and 5% CO2. Cells were stained with 1 μg/mL DAPI (ThermoFisher) and acquired on a Cytoflex S (Beckman Coulter). Data was analysed using FlowJo 10.8.1 (BD).
# To probe the potential for orthogonality in a bump-and-hole context, the same assay was carried out again on all compounds, but this time with a Q147A mutated ZF.
# The pDC50 values derived from this screen were used along with the pDC50 values from the WT screen to assign an orthogonality index value to every compound according the following equation: […]
# Q147A mutated ZF (ANQS) fused to eGFP, sequence (Q9UKT9 130-189 Q147A): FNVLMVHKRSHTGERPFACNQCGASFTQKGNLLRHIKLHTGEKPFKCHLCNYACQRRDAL
# Q147A mutated ZF (ANQS) fused to eGFP, sequence (Q96SW2 whole entry, the tested form may be a part): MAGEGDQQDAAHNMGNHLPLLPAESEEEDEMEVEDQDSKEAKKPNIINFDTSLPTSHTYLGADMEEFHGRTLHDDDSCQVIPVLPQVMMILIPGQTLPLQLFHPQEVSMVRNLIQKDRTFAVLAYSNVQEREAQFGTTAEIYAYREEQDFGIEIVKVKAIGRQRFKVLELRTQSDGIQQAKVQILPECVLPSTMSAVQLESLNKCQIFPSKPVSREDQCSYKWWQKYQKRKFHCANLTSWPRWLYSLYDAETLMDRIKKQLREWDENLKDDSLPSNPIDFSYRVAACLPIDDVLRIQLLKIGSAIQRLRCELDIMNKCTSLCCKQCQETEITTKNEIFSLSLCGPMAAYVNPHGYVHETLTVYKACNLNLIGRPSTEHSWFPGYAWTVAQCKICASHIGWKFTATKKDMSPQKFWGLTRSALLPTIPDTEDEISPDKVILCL
smiles,measurement,setting,value
"CC(C)(C)c1ccc2c(c1)C(=O)N(C1CCC(=O)NC1=O)C2=O (stereo not drawn) [A63, 5-(tert-butyl)-2-(2,6-dioxopiperidin-3-yl)isoindoline-1,3-dione]",position of the WT sequence in the volcano plot of the library screen,[1]; WT ZF sequence,far away from the ‘hits’ region
same,"A63_logFC (Estimated LogFC Coefficient, positive vs negative read counts)","[1]; mutant degron: Degron-ID 214, SEQ ID NO 1763, 46F_47A_49P_50Q_52G_53A_54R_55F_67L",2.012
same,"A63_logFC (Estimated LogFC Coefficient, positive vs negative read counts)","[1]; mutant degron: Degron-ID 1093, SEQ ID NO 1762, 46F 47F_49N_50I_52G_53A 54Q 55F 67L",2.015
same,"A63_logFC (Estimated LogFC Coefficient, positive vs negative read counts)","[1]; mutant degron: Degron-ID 1448, SEQ ID NO 1767, 46F_47H_49D_50I_52G_53A_54K_55F_67L",2.005
same,"A63_logFC (Estimated LogFC Coefficient, positive vs negative read counts)","[1]; mutant degron: Degron-ID 1792, SEQ ID NO 1752, 46F 47I 49E_50V_52G_53A 54P 55F 67L",2.03
same,"A63_logFC (Estimated LogFC Coefficient, positive vs negative read counts)","[1]; mutant degron: Degron-ID 2032, SEQ ID NO 1761, 46F_47K_49E_50V_52G_53A_54P 55F 67L",2.016
same,"A63_logFC (Estimated LogFC Coefficient, positive vs negative read counts)","[1]; mutant degron: Degron-ID 2220, SEQ ID NO 1759, 46F_47L_49E_50I_52G_53A_54A_55F_67L",2.022
same,"A63_logFC (Estimated LogFC Coefficient, positive vs negative read counts)","[1]; mutant degron: Degron-ID 2352, SEQ ID NO 1758, 46F_47L_49P_50I_52G_53A 54P 55F_67L",2.022
same,"A63_logFC (Estimated LogFC Coefficient, positive vs negative read counts)","[1]; mutant degron: Degron-ID 2873, SEQ ID NO 1765, 46F_47N_49P_50V_52G_53A_54Q_55F_67L",2.01
same,"A63_logFC (Estimated LogFC Coefficient, positive vs negative read counts)","[1]; mutant degron: Degron-ID 2874, SEQ ID NO 1756, 46F_47N_49P_50V_52G_53A_54R_55F_67L",2.023
same,"A63_logFC (Estimated LogFC Coefficient, positive vs negative read counts)","[1]; mutant degron: Degron-ID 3479, SEQ ID NO 1750, 46F_47S_49E_50V_52G_53A_54Y_55F_67L",2.034
same,"A63_logFC (Estimated LogFC Coefficient, positive vs negative read counts)","[1]; mutant degron: Degron-ID 3732, SEQ ID NO 1751, 46F 47T 49N 50I 52G 53A 54P 55F 67L",2.034
same,"A63_logFC (Estimated LogFC Coefficient, positive vs negative read counts)","[1]; mutant degron: Degron-ID 4130, SEQ ID NO 1769, 46F_47W_49D_50V_52G_53A_54M_55F_67L",2.004
same,"A63_logFC (Estimated LogFC Coefficient, positive vs negative read counts)","[1]; mutant degron: Degron-ID 4210, SEQ ID NO 1753, 46F_47W_49N_50I_52G_53A_54M_55F 67L",2.029
same,"A63_logFC (Estimated LogFC Coefficient, positive vs negative read counts)","[1]; mutant degron: Degron-ID 4213, SEQ ID NO 1757, 46F_47W_49N_50I_52G_53A_54Q_55F_67L",2.023
same,"A63_logFC (Estimated LogFC Coefficient, positive vs negative read counts)","[1]; mutant degron: Degron-ID 6432, SEQ ID NO 1764, 46F_47W_49P_50I_52G_53R_54P_55F_67L",2.011
same,"A63_logFC (Estimated LogFC Coefficient, positive vs negative read counts)","[1]; mutant degron: Degron-ID 6552, SEQ ID NO 1755, 46L 47F_49P_50I_52G_53F_54P 55C 67L",2.023
same,"A63_logFC (Estimated LogFC Coefficient, positive vs negative read counts)","[1]; mutant degron: Degron-ID 6583, SEQ ID NO 1754, 46L_47H_49P_50I_52G_53F_54E_55C_67L",2.028
same,"A63_logFC (Estimated LogFC Coefficient, positive vs negative read counts)","[1]; mutant degron: Degron-ID 7601, SEQ ID NO 1760, 46L_47A_49E_50I_52G_53F_54C_55C_67L",2.006
same,"A63_logFC (Estimated LogFC Coefficient, positive vs negative read counts)","[1]; mutant degron: Degron-ID 7628, SEQ ID NO 1770, 46L_47C_49E_50I_52G_53F_54K_55C_67L",2.001
same,"A63_logFC (Estimated LogFC Coefficient, positive vs negative read counts)","[1]; mutant degron: Degron-ID 7865, SEQ ID NO 1760, 46L 47R_49E_50I_52G_53F_54G_55C_67L",2.019
same,"A63_logFC (Estimated LogFC Coefficient, positive vs negative read counts)","[1]; mutant degron: Degron-ID 7971, SEQ ID NO 1768, 46L_47Y_49E_50I_52G_53F_54N_55C_67L",2.005
same,orthogonality index value (from pDC50 Q147A and pDC50 WT),"[2]; Q147A vs WT ZF, compounds with Q147A Dmax >=0.4 dismissed, 1080 min",> 10
same,degradation against Q147A relative to WT,"[2]; flow cytometry, pDC50 comparison",improved degradation
